From US20020013478A1, “Calanolide analogues and methods of their use” (Sarawak Medichem Pharmaceuticals,Inc., priority 1994, published 2002)
pEC50, pIC50: −log10 of the molar value. Where two headings read alike, the source gives them in different places.

Key:
HIV-1 = conditions: for pEC50 / Maximum Protection (%): CEM-SS MTT assay; for protecting cells against HIV infection: text summary of Table I
CEM-SS cells = test: CEM-SS MTT assay, cytotoxicity (Table I); format: cell-based, human
[1] = system: HCMV isolates Towne, AD169, E. Mann, Coffman, C9208; test: Anti-CMV plaque reduction assay against various laboratory and clinical isolates (Example 40); format: cell-based, human cytomegalovirus
Method: On the date of assay, the drug is made up at twice the desired concentration in 2x MEM and then serially diluted 1:5 in 2x MEM using six concentrations of drug. The initial starting concentration is usually 200 gg/mL down to 0.06 μg/mL. […] The media is then aspirated from the wells and 0.2 mL of virus is added to each well in duplicate with 0.2 mL of media being added to drug toxicity wells. The plates are then incubated for one hour with shaking every fifteen minutes. […] This will give final drug concentrations beginning with 100 μg/mL and ending with 0.03 μg/mL and a final agarose overlay concentration of 0.5%. The drug agarose mixture is applied to each well in 2 mL volume and the plates then incubated for three days, after which the cells were stained with a 1.5% solution of neutral red. At the end of 4-6hr incubation period, the stain is aspirated, and plaques counted using a stereomicroscope at lOx magnification. The procedure again is nearly the same as for HSV with a few minor changes. […] The assay is incubated for 14 days with the additional 1 mL overlays being applied on days four and eight. The procedure for the liquid overlay plaque assay is similar to that using the agarose overlay. The procedure for adding the virus is the same as for the regular plaque assay. The drugs are made up in a concentration to be used in MEM with 2% FBS. The drugs are not made up at 2x concentration as in the previous assays but are made up at the desired concentration. For HSV-1 and HSV-2 assays, an antibody preparation obtained from Baxter Health Care Corporation is diluted 1:500 and added to the media that the drug is diluted in. For CMV and VZV, no antibody in the overlay is utilized. For the CMV assay, additional medium without new drug is added on day five and allowed to incubate for a total of 10 days. For VZV, additional medium is added on day five and incubated for a total of 10 days. At the end of the incubation period for all of the assays, 2 mL of 1:10 dilution of stock neutral is added to each well incubated for six hours. The liquid is then aspirated off and plaques enumerated using a stereomicroscope. Five calanolide analogues, prepared as described above, were further evaluated for their anti-HCMV activity in plaque reduction assay against various laboratory and clinical isolates (Towne, AD 169, E. Mann, Coffinan, and […]).

HCMV = HCMV semi-automated CPE-inhibition assay in human foreskin fibroblast cells; format: cell-based, human cytomegalovirus; conditions: Table II
HBV = HBV replication in cultures of 2.2.15 cells, extracellular HBV virion DNA (primary assay); conditions: read-out: HBV EC50; Table II
2.2.15 cells = test: Toxicity in 2.2.15 cells, neutral red dye uptake; format: cell-based, human; conditions: Table II; read-out: HBV IC50
Method: Cells of 2.2.15 were grown to confluence in 96-well flat-bottomed tissue culture plates and treated with compounds (in 0.2 mL culture medium/well) as described above. Four concentrations of each compound were assayed, each in triplicate cultures, in 3- to 10-fold steps. Untreated control cultures were maintained on each 96-well plate. On each 96-well plate, wells containing no cells were used to correct for light scattering.

[2] = system: human foreskin fibroblast cells; test: Toxicity run with the HCMV assay, human foreskin fibroblast cells; format: cell-based; conditions: Table II
Method: [table] […] The media from the wells is then aspirated and 2 mL of each drug concentration is then added to each well. The cells are then incubated in a CO2 incubator at 37° C. for 72 h. At the end of this time, the media-drug solution is removed and the cells washed. […] The cell-media mixture is then pipetted up and down vigorously to break up the cell suspension, and 0.2 mL of the mixture is added to 9.8 mL of Isoton III and counted using a Coulter Counter. Each sample is counted three times with three replicate wells per sample. The procedure for plating cells and adding drug is the same as for the MTT Assay. After drug addition, the plates are incubated for seven days in a CO2 incubator at 37° C. […] This is incubated in the CO2 incubator for one hour. The dye is aspirated and the cells are washed using a Nunc Plate Washer. […] The plates are rotated for 15 minutes and the optical densities are read at 550 nm on a plate reader.

Row | SMILES | pEC50 (HIV-1) | Maximum Protection (%) (HIV-1) | protecting cells against HIV infection (HIV-1) | pIC50 (CEM-SS cells) | further results
1 | CCCc1cc(=O)oc2c3c(c4c(c12)OC(C)(C)C=C4)OC(C)C(C)C3=O (racemic) [(±)-7, 10,11-trans-dihydro-4-propyl-6,6,10,11-tetramethyl-2H,6H,12H-benzo[1,2-b:3,4-b′:5,6-b″]-tripyran-2,12-dione] | 5.93 | 90% | highly efficacious | 4.72 | pEC50 ([1]; isolate AD169): 5.50; pEC50 ([1]; isolate C9208): 5.15; pEC50 ([1]; isolate Coffman): 5.48; pEC50 ([1]; isolate E. Mann): 5.50; pEC50 ([1]; isolate Towne): 5.48
2 | CCCc1cc(=O)oc2c3c(c4c(c12)OC(C)(C)C=C4)OC(CC)C(C)C3O (racemic) [(±)-16f, (±)-10,11-qrans-11,12-trans-10,11-dihydro-10-ethyl-12-hydroxy4-propyl-6,6,11-trimethyl-2H,6H,12H-benzo [1,2-b:3,4-b′:5,6-b″]tripyran-2-one] | 5.71 | 86% | highly efficacious | 4.75 | –
3 | CCCc1cc(=O)oc2c3c(c4c(c12)OC(C)(C)C=C4)OC(C)(C)C(C)C3O (racemic) [(±)-16d, (±)-11,12-trans-10,11-dihydro-12-hydroxy-6,6,10,10,11-pentamethyl-4-propyl-2H,6H,12H-benzo [1,2-b:3,4-b′:5,6-b″]tripyran-2-one] | 5.25 | 88% | highly efficacious | 4.68 | –
4 | CCCc1cc(=O)oc2c3c(c4c(c12)OC(C)(C)C=C4)OC(CC)C(C)C3O (racemic) [(±)-16h, (±)-10,11,12-cis-10,11-dihydro10-ethyl-12-hydroxy4-propyl-6,6,11-trimethyl-2H,6H,12H-benzo [1,2-b:3,4-b′:5,6-b″]tripyran-2-one] | – | – | – | 4.68 | –
5 | CCCc1cc(=O)oc2c3c(c4c(c12)OC(C)(C)C=C4)O[C@H](C)[C@@H](C)C3=NO (racemic) [(±)-19a, (±)10,11-trans-10,11-Dihydro4-propyl-6,6,10,11-tetramethyl-2H, 6H, 12H-benzo [1,2-b:3,4-b′:5,6-b″]tripyran-2,12-dione-12-oxime] | – | – | – | 4.80 | –
6 | CCCc1cc(=O)oc2c3c(c4c(c12)OC(C)(C)C=C4)OC(C)C(C)C3=O (single isomer, unassigned; (-)) [(−)-7a] | – | – | – | – | HCMV EC50 (HCMV): >4.0 µg/mL; pEC50 (HBV): < 5.00; pIC50 (2.2.15 cells): 4.07; HCMV IC50 [2]: 11.9 µg/mL
7 | CCCc1cc(=O)oc2c3c(c4c(c12)OC(C)(C)C=C4)OC(C)(C)C(C)C3O (racemic) [(±)-16c, (±)-11,12-cis-10,11-Dihydro-12-hydroxy-6,6,10,10,11-pentamethyl-4-propyl-2H, 6H, 12H-benzo [1,2-b:3,4-b′:5,6-b″]tripyran-2-one] | – | – | – | 4.67 | –
8 | CCCc1cc(=O)oc2c3c(c4c(c12)OC(C)(C)C=C4)O[C@@H](C)C(C)=C3 [Compound 22, 10(S)4-propyl-6,6,10,11-tetramethyl-2H,6H,10H-benzo [1,2-b:3,4-b′:5,6-b″]tripyran-2-one] | – | – | – | – | pIC50 (CEM-SS cells; Homo sapiens): 4.61
9 | CCCc1cc(=O)oc2c(C(=O)[C@H](C)[C@@H](C)OC(C)=O)c(O)c3c(c12)OC(C)(C)C=C3 [(+)-10, 6,6Dimethyl-9-hydroxy-10-[2(R)-methyl-3(R)-acetoxybutyro]-4-propyl-2H,6H-benzo-[1,2-b:3,4-b′]dipyran-2-one] | 6.05 | 88% | highly efficacious | 5.03 | –
10 | CCCc1cc(=O)oc2c(C(=O)C(C)C(C)(C)O)c(O)c3c(c12)OC(C)(C)C=C3 (racemic) [(±)-14b, (±)-6.6-Dimethyl-10-(2,3-dimethyl-3-hydroxybutyro)-9-hydroxy4-propyl-2H,6H-benzo[1,2-b:3,4-b′]dipyran-2-one] | – | – | – | 4.57 | –
11 | CCCc1cc(=O)oc2c3c(c4c(c12)OC(C)(C)C=C4)OC(C)C(C)C3=NOC (racemic) [(±)-19b, (±)-10,11-trans-10,11 -Dihydro4-propyl-6,6,10,11-tetramethyl-2H, 6H, 12H-benzo [1,2-b:3,4-b′:5,6-b ″]tripyran-2,12-dione-12-methoxime] | < 4.00 | – | – | < 4.00 | –
12 | CCCc1cc(=O)oc2c3c(c4c(c12)OC(C)(C)C=C4)OC(C)C(C)(C)C3O (racemic) [(±)-16b, (±)-10,12-trans-10,11-dihydro-12-hydroxy-6,6,10,11,11-pentamethyl-4-propyl-2H,6H,12H-benzo [1,2-b:3,4-b′:5,6-b″]tripyran-2-one] | 5.63 | 78% | highly efficacious | 4.77 | –
13 | CCCc1cc(=O)oc2c3c(c4c(c12)OC(C)(C)C=C4)OC(C)C(C)(C)C3O (racemic) [(±)-16a, (±)-10,12-cis-10,11-Dihydro-12-hydroxy-6,6,10,11,11-pentamethyl-4propyl-2H, 6H, 12H-benzo [1,2-b:3,4-b′:5,6-b″]tripyran-2-one] | – | – | – | 4.69 | –
14 | CCCc1cc(=O)oc2c(C(=O)C(C)(C)C(C)O)c(O)c3c(c12)OC(C)(C)C=C3 (racemic) [(±)-14a, (±)-6,6-Dimethyl-10-(2,2-dimethyl-3-hydroxybutyro)-9-hydroxy-4-propyl-2H,6H-benzo[1,2-b:3,4-b′]dipyran-2-one] | – | – | – | 4.43 | –
15 | CCCc1cc(=O)oc2c3c(c4c(c12)OC(C)(C)C=C4)OC(CC)C(C)C3O (racemic) [(±)-16e, (±)-10,11-trans-11,12-cis-10,11-Dihydro-10-ethyl-12-hydroxy-4-propyl-6,6,11-trimethyl-2H,6H,12H-benzo [1,2-b:3,4-b′:5,6-b″]tripyran-2-one] | 5.78 | 88% | highly efficacious | 4.85 | –
16 | CCCc1cc(=O)oc2c3c(c4c(c12)OC(C)(C)C=C4)OC(CC)C(C)C3O (racemic) [(±)-16g, (±)-10,11-cis-11,12-trans-10,11-Dihydro-10-ethyl-12-hydroxy-4-propyl-6,6,11-trimethyl-2H,6H,12H-benzo [1,2-b:3,4-b′:5,6-b″]tripyran-2-one] | – | – | – | 4.94 | –
